From patent US7241581B2, “Methods of identifying compounds that modulate IL-4 receptor-mediated IgE synthesis utilizing a c-MYC protein” (Rigel Pharmaceuticals, Inc., priority 2002, dated 2007) come the findings set out here.

The subject of test [1] is IL-4 induced germline ε transcription. Description: A5T4 reporter line screening of single cell clones (+Dox vs -Dox, IL-4 stimulated, GFP by FACS). In kind it is cell-based, human. The note with it: geometric mean GFP fluorescence +IL-4/+Dox to +IL-4/-Dox; IL-4 60 U/mL, Dox 10 ng/ml; library clone. The source says:
Peptide BR10A1 wt was identified by screening a retroviral library of random peptide 20-mers for the ability to inhibit IL-4 induced germline ε transcription using the HBEGF2a/diphtheria dual reporter phenotypic screening system described in WO 01/31232. To construct the random library, A5T4 reporter cells (described in more detail below) were infected with an infectious retroviral library of random peptide 20-mers (prepared as described in WO 97/27213; see also WO 01/34806 at page 39, line 36 through page 40, line 19). The retroviral vector used includes a gene encoding blue fluorescent protein (BFP) fused upstream of the region encoding the random peptide via a linker region encoding an α-helical peptide linker (expression fusion product is referred to as “BFP-peptide”). Expression of the BFP-peptide product is controlled by a promoter sensitive to the tetracycline-regulated transactivator such that expression of the BFP-peptide is regulated by tetracycline (Tet) or doxycycline (Dox). See U.S. patent application Ser. No. 10/096,339, entitled “Methods and Compositions for Screening for Altered Cellular Phenotypes,” filed on Mar. 8, 2002. […]

For test [2], the system named is endogenous germline α promoter. Put plainly: TAQMAN assay of endogenous germline α promoter transcription in ST486 cells. In kind it is cell-based. The following applies: ST486 cells stimulated with TGF-β 40 ng/ml; average of 3 values. As to the method: The assay was similar to that described in the immediately preceding section, except that ST486 cells (ATCC # CRL-1647) engineered to express the tetracycline-regulated transactivator were infected and the infected cells were stimulated with TGF-β (40 ng/ml; Peprotech). The primers and probe, which are specific for the transcription product driven by the ST486 endogenous α promoter, were as follows (the probe was labeled at the 5′-end with Fam and at the 3′-end with Tamra): […]
On the technique in general: Real-time PCR tracks product formation cycle by cycle.

Regarding “MQRRESCITRSVEEGWGLFYLGP (peptide encoded by random oligo-BR10A1wt) [wild-type peptide from random library, expressed in cells as BFP-peptide fusion]”, the Reporter Ratio in test [1] is recorded as 1.26. Further, the “endogenous α inhibition ratio” value in test [2] came out at 0.87.
